From publication PMC6692071 (Journal of medicinal chemistry, 2018)
Entries after “also recorded” stand apart in the source; their conditions may differ.

Tests used:
human δ opioid receptor [1] = target: T1, human δ opioid receptor (Homo sapiens, UniProt P41143); conditions: mean ± SEM; cited from earlier work
human δ opioid receptor [2] = target: T1, human δ opioid receptor; assay: biochemical
[3] = rat PK studies
human κ opioid receptor = human κ opioid receptor (Homo sapiens, UniProt P41145); conditions: mean ± SEM; cited from earlier work
Chain of human κ opioid receptor (P41145 whole entry): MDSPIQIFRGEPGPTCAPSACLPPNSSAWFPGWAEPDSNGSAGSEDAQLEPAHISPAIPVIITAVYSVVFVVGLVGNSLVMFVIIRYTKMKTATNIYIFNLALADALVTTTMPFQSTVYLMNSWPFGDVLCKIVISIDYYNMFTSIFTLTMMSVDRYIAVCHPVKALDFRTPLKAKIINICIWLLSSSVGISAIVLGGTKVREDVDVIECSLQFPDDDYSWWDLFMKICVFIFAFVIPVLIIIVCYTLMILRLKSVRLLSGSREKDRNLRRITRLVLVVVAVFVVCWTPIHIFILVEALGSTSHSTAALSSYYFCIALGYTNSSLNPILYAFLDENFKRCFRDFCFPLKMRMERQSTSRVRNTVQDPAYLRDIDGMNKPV

T1 sequence (P41143 whole entry): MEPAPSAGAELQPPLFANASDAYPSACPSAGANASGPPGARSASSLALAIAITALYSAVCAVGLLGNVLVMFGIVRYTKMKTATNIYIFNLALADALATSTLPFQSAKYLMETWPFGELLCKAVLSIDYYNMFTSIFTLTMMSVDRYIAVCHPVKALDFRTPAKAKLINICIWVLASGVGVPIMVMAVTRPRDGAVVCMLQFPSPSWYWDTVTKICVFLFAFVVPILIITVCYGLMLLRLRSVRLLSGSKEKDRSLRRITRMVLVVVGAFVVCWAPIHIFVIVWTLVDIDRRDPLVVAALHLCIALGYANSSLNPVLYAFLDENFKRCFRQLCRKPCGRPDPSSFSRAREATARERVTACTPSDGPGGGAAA

Compound: CC(C)[C@@H](CC1CCCCC1)NC(=O)[C@H]1Cc2ccc(O)cc2CN1 [Compound 1]
- Ke δ, DPDPE (human δ opioid receptor [1]): 640 ± 170 nM

Compound: CC(C)[C@H](CC1CCCCC1)NC(=O)[C@H]1Cc2ccc(O)cc2CN1 [Compound 4, (3R)-N-[(1S)-1-(Cyclohexylmethyl)-2-methylpropyl]-7-hydroxy-1,2,3,4-tetrahydroisoquinoline-3-carboxamide]
- Kb (human δ opioid receptor [2]): > 3 µM

Compound: CC1CCN(C[C@@H](NC(=O)[C@H]2Cc3ccc(O)cc3CN2)C(C)C)CC1 [4-MePDTic (43)]
- Ke δ, DPDPE (human δ opioid receptor [1]): >3000 nM

Compound: CC(C)[C@@H](CN1CCCCC1)NC(=O)[C@H]1Cc2ccc(O)cc2CN1 [Compound 42, (3R)-7-hydroxy-N-[(1S)-2-methyl-1-(piperidin-1-ylmethyl)propyl]-1,2,3,4-tetrahydroisoquinoline-3-carboxamide]
- Ke δ, DPDPE (human δ opioid receptor [1]): >3000 nM

Compound: CC(C)[C@@H](CC1CCCCC1)NC(=O)[C@H]1Cc2ccc(C(N)=O)cc2CN1 [Compound 9, (3R)-N^3-[(1R)-1-(Cyclohexylmethyl)-2-methylpropyl]-1,2,3,4-tetrahydroisoquinoline-3,7-dicarboxamide]
- brain penetration [3]: brain penetration

Compound: CC(C)[C@@H](CC1CCCC1)NC(=O)[C@H]1Cc2ccc(O)cc2CN1 [Compound 13, (3R)-N-[(1R)-1-(Cyclopentylmethyl)-2-methylpropyl]-7-hydroxy-1,2,3,4-tetrahydroisoquinoline-3-carboxamide]
- brain penetration [3]: brain penetration; also recorded: crossed the blood–brain barrier; also recorded: penetrate the brain

Compound: CC(C)[C@H](CC1CCCCC1)NC(=O)[C@@H]1Cc2ccc(O)cc2CN1 [Compound 5, (3S)-N-[(1S)-1-(Cyclohexylmethyl)-2-methylpropyl]-7-hydroxy-1,2,3,4-tetrahydroisoquinoline-3-carboxamide]
- Kb (human δ opioid receptor [2]): > 3 µM

Compound: CC(C)[C@@H](CN1CC[C@@](C)(c2cccc(O)c2)[C@@H](C)C1)NC(=O)[C@H]1Cc2ccc(O)cc2CN1 [JDTic, (3R)-1,2,3,4-tetrahydro-7-hydroxy-N-[(1S)-1-[[(3R,4R)-4-(3-hydroxy-phenyl)-3,4-dimethyl-1-piperidinyl]methyl]-2-methylpropyl]-3-iso-quinolinecarboxamide]
- Ke κ, U69,593 (human κ opioid receptor): 0.02 ± 0.01 nM

Compound: CC(C)[C@@H](CC1CCCCC1)NC(=O)[C@@H]1Cc2ccc(O)cc2CN1 [Compound 3, (3S)-N-[(1R)-1-(Cyclohexylmethyl)-2-methylpropyl]-7-hy-droxy-1,2,3,4-tetrahydroisoquinoline-3-carboxamide]
- Kb (human δ opioid receptor [2]): > 3 µM
